Measured values reported in ChEMBL document CHEMBL1201862, “PubChem BioAssay data set” (2004).
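96-well plates; 48 h exposure; 5 concentrations. Endpoints by linear interpolation between flanking doses. Not reached: highest tested concentration assigned. Abbreviation: GI50, concentration required for 50% inhibition of growth.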 The source made the active and inactive calls. Cut-off read from the data, not from the text of the source: active = GI50 up to about 1.1 µM and inactive = higher.

What was measured:
Assay in all cases: DTP human tumour cell line panel, 48 h
HL-60 = system: HL-60
SK-MEL-2 = system: SK-MEL-2
UACC-257 = system: UACC-257
SF-295 = system: SF-295
SF-268 = system: SF-268
NCI-H23 = system: NCI-H23
ACHN = system: ACHN
LOX IMVI = system: LOX IMVI
SR = system: SR
A549 = system: A549
IGROV-1 = system: IGROV-1
SN12C = system: SN12C
OVCAR-3 = system: OVCAR-3
KM12 = system: KM12
SK-MEL-28 = system: SK-MEL-28
NCI-H460 = system: NCI-H460
SNB-75 = system: SNB-75
NCI-H226 = system: NCI-H226
HCT-15 = system: HCT-15
RXF 393 = system: RXF 393

Row | SMILES | GI50 (HL-60) | GI50 (SK-MEL-2) | GI50 (UACC-257) | GI50 (SF-295) | GI50 (SF-268) | GI50 (NCI-H23) | GI50 (ACHN) | GI50 (LOX IMVI) | GI50 (SR) | GI50 (A549) | GI50 (IGROV-1) | GI50 (SN12C) | GI50 (OVCAR-3) | GI50 (KM12) | GI50 (SK-MEL-28) | GI50 (NCI-H460) | GI50 (SNB-75) | GI50 (NCI-H226) | GI50 (HCT-15) [µM] | GI50 (RXF 393)
1 | Nc1[nH]nc2ccccc12 | > 100 µM (inactive) | > 100 µM (inactive) | > 100 µM (inactive) | 77.8 µM (inactive) | > 100 µM (inactive) | > 100 µM (inactive) | > 100 µM (inactive) | > 100 µM (inactive) | 62.2 µM (inactive) | > 100 µM (inactive) | > 100 µM (inactive) | > 100 µM (inactive) | > 100 µM (inactive) | > 100 µM (inactive) | > 100 µM (inactive) | > 100 µM (inactive) | > 100 µM (inactive) | > 100 µM (inactive) | 54.7 | > 100 µM (inactive)
2 | NC1=Nc2ccccc2Sc2nnc(-c3ccc(Cl)cc3)n21 | 8.59 µM (inactive) | > 100 µM (inactive) | > 100 µM (inactive) | 29.6 µM (inactive) | 19.5 µM (inactive) | > 100 µM (inactive) | 47 µM (inactive) | 7.03 µM (inactive) | 11.2 µM (inactive) | 49.3 µM (inactive) | 48.8 µM (inactive) | 38.1 µM (inactive) | > 100 µM (inactive) | 98.2 µM (inactive) | > 100 µM (inactive) | 21.9 µM (inactive) | 17.3 µM (inactive) | > 100 µM (inactive) | 7.16 | 22.8 µM (inactive)
3 | O=C1CCCc2ccc3c(c21)CC1(Cc2cc4c(cc2C1)CCCC4)C3 | 6.05 µM (inactive) | 21.2 µM (inactive) | 18.5 µM (inactive) | 29.8 µM (inactive) | 29 µM (inactive) | 18.2 µM (inactive) | 16.1 µM (inactive) | 14.6 µM (inactive) | 6.98 µM (inactive) | 22 µM (inactive) | 24.7 µM (inactive) | 19.1 µM (inactive) | 20.1 µM (inactive) | 22.2 µM (inactive) | 24.9 µM (inactive) | 22.8 µM (inactive) | 20.7 µM (inactive) | 17.4 µM (inactive) | 19.4 | 15.6 µM (inactive)
4 | Cc1ccc(NNc2cc(=O)[nH]c(=O)[nH]2)cc1Cl | 3.08 µM (inactive) | 16.5 µM (inactive) | 17.5 µM (inactive) | 37.5 µM (inactive) | 43.2 µM (inactive) | 16.8 µM (inactive) | 9.42 µM (inactive) | 5.71 µM (inactive) | 12.1 µM (inactive) | 29 µM (inactive) | 13.8 µM (inactive) | > 100 µM (inactive) | 14.8 µM (inactive) | 27.3 µM (inactive) | 17.2 µM (inactive) | 33.2 µM (inactive) | > 100 µM (inactive) | 56.9 µM (inactive) | 10.6 | 16.5 µM (inactive)
5 | Cc1cc(O)nc(NNC(C#N)c2cccc([N+](=O)[O-])c2)n1 (stereo not given) | > 100 µM (inactive) | > 100 µM (inactive) | > 100 µM (inactive) | > 100 µM (inactive) | > 100 µM (inactive) | > 100 µM (inactive) | > 100 µM (inactive) | > 100 µM (inactive) | 74 µM (inactive) | > 100 µM (inactive) | > 100 µM (inactive) | > 100 µM (inactive) | > 100 µM (inactive) | > 100 µM (inactive) | > 100 µM (inactive) | > 100 µM (inactive) | 65.3 µM (inactive) | > 100 µM (inactive) | > 100 | > 100 µM (inactive)
6 | COc1cc2oc(=O)cc(C)c2cc1O | > 100 µM (inactive) | > 100 µM (inactive) | > 100 µM (inactive) | > 100 µM (inactive) | > 100 µM (inactive) | > 100 µM (inactive) | > 100 µM (inactive) | > 100 µM (inactive) | > 100 µM (inactive) | > 100 µM (inactive) | > 100 µM (inactive) | > 100 µM (inactive) | > 100 µM (inactive) | > 100 µM (inactive) | > 100 µM (inactive) | > 100 µM (inactive) | > 100 µM (inactive) | > 100 µM (inactive) | > 100 | > 100 µM (inactive)
7 | N#Cc1c(-c2ccccc2)cc(Nc2ccc(F)cc2)n2c1nc1ccccc12 | > 100 µM (inactive) | 1.43 µM (inactive) | 2.54 µM (inactive) | 2.22 µM (inactive) | 3.72 µM (inactive) | 3.18 µM (inactive) | 2.7 µM (inactive) | 3.33 µM (inactive) | 3.89 µM (inactive) | 2.28 µM (inactive) | 4.12 µM (inactive) | 2.02 µM (inactive) | 3.13 µM (inactive) | 3.52 µM (inactive) | 8.32 µM (inactive) | 2.36 µM (inactive) | 1.72 µM (inactive) | 2.81 µM (inactive) | 3.26 | 2.66 µM (inactive)
8 | C=CC/N=C1\N=C(C)C(C(=O)OCC)S1 (stereo not given) | 7.16 µM (inactive) | > 100 µM (inactive) | > 100 µM (inactive) | > 100 µM (inactive) | > 100 µM (inactive) | > 100 µM (inactive) | > 100 µM (inactive) | > 100 µM (inactive) | > 100 µM (inactive) | > 100 µM (inactive) | > 100 µM (inactive) | > 100 µM (inactive) | > 100 µM (inactive) | > 100 µM (inactive) | > 100 µM (inactive) | > 100 µM (inactive) | > 100 µM (inactive) | > 100 µM (inactive) | > 100 | > 100 µM (inactive)
9 | C[Si]1(C)C(c2ccccc2)=CC2C(c3ccccc3)(c3ccccc3)OC21c1ccccc1 (stereo not given) | 28.7 µM (inactive) | > 100 µM (inactive) | > 100 µM (inactive) | 66.8 µM (inactive) | > 100 µM (inactive) | > 100 µM (inactive) | > 100 µM (inactive) | > 100 µM (inactive) | 29.4 µM (inactive) | > 100 µM (inactive) | > 100 µM (inactive) | > 100 µM (inactive) | > 100 µM (inactive) | > 100 µM (inactive) | > 100 µM (inactive) | > 100 µM (inactive) | > 100 µM (inactive) | > 100 µM (inactive) | > 100 | 47.5 µM (inactive)
10 | CC1CC(=O)NC2CC1C2(C)C (stereo not given) | > 100 µM (inactive) | > 100 µM (inactive) | > 100 µM (inactive) | > 100 µM (inactive) | > 100 µM (inactive) | > 100 µM (inactive) | > 100 µM (inactive) | > 100 µM (inactive) | > 100 µM (inactive) | > 100 µM (inactive) | > 100 µM (inactive) | > 100 µM (inactive) | > 100 µM (inactive) | > 100 µM (inactive) | > 100 µM (inactive) | > 100 µM (inactive) | > 100 µM (inactive) | > 100 µM (inactive) | > 100 | > 100 µM (inactive)
11 | CCC1(CC)C(=O)N(C(=O)c2ccc(C)cc2)N(C(=O)c2ccc(C)cc2)C1=O | 28.4 µM (inactive) | > 75 µM (inactive) | > 75 µM (inactive) | 72.9 µM (inactive) | 27.7 µM (inactive) | 27.2 µM (inactive) | 26.8 µM (inactive) | 33.2 µM (inactive) | 26.2 µM (inactive) | > 75 µM (inactive) | 48.9 µM (inactive) | 54.2 µM (inactive) | 17.7 µM (inactive) | 50.9 µM (inactive) | > 75 µM (inactive) | 18.3 µM (inactive) | 14.4 µM (inactive) | > 75 µM (inactive) | 32 | > 75 µM (inactive)
12 | COc1ccc(-c2c3c(cc4cc5c(cc24)OCO5)C(=O)OC3)cc1OC | 0.271 µM (active) | 1.83 µM (inactive) | 2.07 µM (inactive) | 0.239 µM (active) | 5.85 µM (inactive) | 6.98 µM (inactive) | 1.37 µM (inactive) | 0.0164 µM (active) | 0.0299 µM (active) | 1.44 µM (inactive) | 0.336 µM (active) | 0.488 µM (active) | 0.885 µM (active) | 1.77 µM (inactive) | 1.37 µM (inactive) | 0.222 µM (active) | 6.92 µM (inactive) | 0.34 µM (active) | 0.635 | 2.9 µM (inactive)
